Measurements reported in ChEMBL document CHEMBL3826911, “Rational design and synthesis of novel anti-prostate cancer agents bearing a 3,5-bis-trifluoromethylphenyl moiety” (Bioorg Med Chem Lett, 2016).

Assays:
[1] = system: CWR22R; assay: Antiproliferative activity against human 22Rv1 cells assessed as reduction in cell viability after 96 hrs by propidium iodide staining based fluorescence assay; assay type: functional; details: Homo sapiens, 22Rv1, 96 h; read-out: IC50
[2] = Antiproliferative activity against human DU145 cells assessed as reduction in cell viability after 96 hrs by propidium iodide staining based fluorescence assay; assay type: functional, DU-145; details: Homo sapiens, DU-145, 96 h; read-out: IC50
[3] = system: LNCaP; assay: Antiproliferative activity against human LNCAP cells assessed as reduction in cell viability after 96 hrs by propidium iodide staining based fluorescence assay; assay type: functional; details: Homo sapiens, LNCaP, 96 h; read-out: IC50
[4] = Antiproliferative activity against human VCaP cells assessed as reduction in cell viability after 96 hrs by propidium iodide staining based fluorescence assay; assay type: functional; details: Homo sapiens, VCaP, 96 h; read-out: IC50
[5] = system: HepG2; assay: Cytotoxicity against human HepG2 cells assessed as cell viability after 72 hrs by MTT assay; assay type: functional, cell-based
[6] = target: Albumin (Homo sapiens, UniProt P02768); assay: Binding affinity to human serum albumin at 5 uM by equilibrium dialysis based LC-MS/MS analysis; assay type: ADME; details: read-out: PB (converted)
Sequence of Albumin (P02768 whole entry): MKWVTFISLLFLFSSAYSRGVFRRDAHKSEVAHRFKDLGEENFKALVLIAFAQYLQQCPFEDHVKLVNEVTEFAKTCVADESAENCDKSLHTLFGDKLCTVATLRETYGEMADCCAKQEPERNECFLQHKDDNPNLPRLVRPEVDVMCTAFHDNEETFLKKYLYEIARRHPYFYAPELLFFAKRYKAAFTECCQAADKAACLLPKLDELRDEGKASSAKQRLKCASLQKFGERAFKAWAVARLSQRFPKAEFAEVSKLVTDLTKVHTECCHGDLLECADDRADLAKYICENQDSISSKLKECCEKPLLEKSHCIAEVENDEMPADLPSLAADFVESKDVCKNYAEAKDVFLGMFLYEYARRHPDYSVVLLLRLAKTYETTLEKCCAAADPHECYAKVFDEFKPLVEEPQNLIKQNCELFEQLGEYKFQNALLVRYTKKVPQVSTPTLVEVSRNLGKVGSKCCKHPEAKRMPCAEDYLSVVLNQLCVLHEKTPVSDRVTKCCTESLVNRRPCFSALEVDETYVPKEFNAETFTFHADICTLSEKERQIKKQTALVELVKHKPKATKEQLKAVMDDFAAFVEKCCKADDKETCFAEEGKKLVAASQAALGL

[7] = target: hERG (KCNH2) (Homo sapiens, UniProt Q12809); assay: Inhibition of human ERG transfected in CHO cells assessed as blockade of tail current at 25 uM by patch clamp assay; assay type: cell-based; details: CHO cells transfected with human ERG
Sequence of hERG (KCNH2) (Q12809 whole entry): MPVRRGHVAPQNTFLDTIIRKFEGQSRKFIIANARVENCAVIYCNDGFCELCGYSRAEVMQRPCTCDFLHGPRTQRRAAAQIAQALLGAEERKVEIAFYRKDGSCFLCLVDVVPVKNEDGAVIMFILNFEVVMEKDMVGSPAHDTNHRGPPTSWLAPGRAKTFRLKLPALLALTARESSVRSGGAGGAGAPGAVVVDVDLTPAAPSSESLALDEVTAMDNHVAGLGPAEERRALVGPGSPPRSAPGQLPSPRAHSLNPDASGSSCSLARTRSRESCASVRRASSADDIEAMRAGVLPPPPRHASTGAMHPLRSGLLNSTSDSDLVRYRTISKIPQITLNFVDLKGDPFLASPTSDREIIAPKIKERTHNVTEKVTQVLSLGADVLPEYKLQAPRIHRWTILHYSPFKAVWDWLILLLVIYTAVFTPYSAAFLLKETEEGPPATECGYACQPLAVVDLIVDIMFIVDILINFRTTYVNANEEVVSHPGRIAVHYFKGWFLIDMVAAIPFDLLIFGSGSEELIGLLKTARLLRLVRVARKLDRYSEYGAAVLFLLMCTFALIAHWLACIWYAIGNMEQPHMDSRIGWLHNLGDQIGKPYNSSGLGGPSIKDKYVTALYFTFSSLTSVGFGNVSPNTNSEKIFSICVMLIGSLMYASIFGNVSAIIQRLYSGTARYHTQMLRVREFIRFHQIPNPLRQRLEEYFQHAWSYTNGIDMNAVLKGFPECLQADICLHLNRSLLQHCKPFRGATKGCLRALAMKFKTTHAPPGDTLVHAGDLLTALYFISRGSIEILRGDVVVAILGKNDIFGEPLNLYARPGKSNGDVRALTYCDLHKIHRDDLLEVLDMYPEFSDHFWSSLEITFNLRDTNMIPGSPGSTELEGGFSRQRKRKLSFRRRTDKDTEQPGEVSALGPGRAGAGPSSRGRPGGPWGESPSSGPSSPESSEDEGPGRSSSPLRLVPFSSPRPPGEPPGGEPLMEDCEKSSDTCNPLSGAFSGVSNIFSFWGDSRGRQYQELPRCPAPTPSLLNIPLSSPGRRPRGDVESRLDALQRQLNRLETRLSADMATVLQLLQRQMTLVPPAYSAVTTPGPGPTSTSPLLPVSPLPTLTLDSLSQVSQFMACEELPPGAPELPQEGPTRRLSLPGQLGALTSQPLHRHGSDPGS

[8] = system: Liver microsome; assay: Metabolic stability in human liver microsomes at 3 uM in presence of NADPH by LC-MS/MS analysis; assay type: ADME
[9] = Half life in human liver microsomes at 3 uM in presence of NADPH by LC-MS/MS analysis; assay type: ADME
[10] = Protein binding in human plasma by equilibrium dialysis method; assay type: ADME, cell-free; details: read-out: PPB (converted)
[11] = Intrinsic clearance in human liver microsomes assessed per mg of protein at 3 uM in presence of NADPH by LC-MS/MS analysis; assay type: ADME; details: read-out: CLH
[12] = target: T1, Androgen receptor (Homo sapiens, UniProt P10275); assay type: cell-based, GripTite-293
T1 sequence (P10275 whole entry): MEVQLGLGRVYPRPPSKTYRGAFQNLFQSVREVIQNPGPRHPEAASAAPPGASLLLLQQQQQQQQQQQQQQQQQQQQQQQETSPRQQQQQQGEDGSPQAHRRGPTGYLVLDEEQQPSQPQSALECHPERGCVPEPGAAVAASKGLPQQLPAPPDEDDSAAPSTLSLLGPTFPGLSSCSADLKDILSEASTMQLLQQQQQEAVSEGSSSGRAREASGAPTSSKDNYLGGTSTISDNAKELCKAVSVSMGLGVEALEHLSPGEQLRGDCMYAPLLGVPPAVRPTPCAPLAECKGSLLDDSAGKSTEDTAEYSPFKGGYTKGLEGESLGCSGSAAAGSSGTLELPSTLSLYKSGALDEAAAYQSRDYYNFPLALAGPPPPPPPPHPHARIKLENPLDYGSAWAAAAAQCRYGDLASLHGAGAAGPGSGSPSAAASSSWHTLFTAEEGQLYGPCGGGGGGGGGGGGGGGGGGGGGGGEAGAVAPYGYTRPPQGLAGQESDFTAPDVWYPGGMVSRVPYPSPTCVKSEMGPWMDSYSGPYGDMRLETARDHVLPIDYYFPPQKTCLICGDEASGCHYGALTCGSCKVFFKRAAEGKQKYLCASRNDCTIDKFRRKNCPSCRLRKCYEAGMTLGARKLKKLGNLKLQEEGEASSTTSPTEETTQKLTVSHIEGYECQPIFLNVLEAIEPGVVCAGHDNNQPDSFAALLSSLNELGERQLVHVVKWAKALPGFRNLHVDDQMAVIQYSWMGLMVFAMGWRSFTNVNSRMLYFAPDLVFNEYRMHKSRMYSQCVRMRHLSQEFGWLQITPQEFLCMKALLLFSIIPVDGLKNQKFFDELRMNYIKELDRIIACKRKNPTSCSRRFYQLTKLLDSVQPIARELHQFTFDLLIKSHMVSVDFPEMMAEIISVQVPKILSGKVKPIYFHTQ
Description: Antagonist activity at GAL4 DBD-fused androgen receptor LBD (unknown origin) transfected in UAS-bla GripTite 293 cells assessed as inhibition of R1881-induced receptor activation after 16 to 24 hrs by beta-lactamase reporter gene assay

[13] = target: T2, Androgen receptor (Homo sapiens) (UniProt P10275); details: GripTite-293, at 10 µM
T2 sequence (whole entry): T1 sequence (P10275 whole entry)

| Compound | IC50 [1] | IC50 [2] | IC50 [3] | IC50 [4] | Activity [5] | fraction unbound at 5 µM [6] | inhibition at 25 µM [7] | Stability [8] | half-life at 3 µM [9] | AC50 ([5]; HepG2, 72 h) | fraction unbound [10] | microsomal CLint at 3 µM [11] | IC50 [12] | minimal effective concentration ([5]; HepG2, 72 h, read-out: MEC) | inhibition [13] |
| --- | --- | --- | --- | --- | --- | --- | --- | --- | --- | --- | --- | --- | --- | --- | --- |
| C[C@](O)(CS(=O)(=O)c1cc(C(F)(F)F)cc(C(F)(F)F)c1)C(=O)Nc1ccc(C#N)c(C(F)(F)F)c1 | 2500 nM | 6.36 µM | 1990 nM | 4.11 µM | Dose-dependent effect | 0.001 | 29.3% | Stable |  |  |  |  |  |  |  |
| C[C@](O)(CS(=O)(=O)c1ccc(F)cc1)C(=O)Nc1ccc(C#N)c(C(F)(F)F)c1 [(R)-BICALUTAMIDE] | 46200 nM | 45.4 µM |  | 51.6 µM |  |  |  |  | 214 min | 54.3 µM | 0.04 |  |  |  |  |
| COc1ccc2c(c1)[C@]13CCCC[C@@H]1[C@H](C2)N(C)CC3 [DEXTROMETHORPHAN] |  |  |  |  |  |  |  |  | 63.2 min |  |  | 21.9 µL/min/mg |  |  |  |
| CC(O)(CS(=O)(=O)c1cc(C(F)(F)F)cc(C(F)(F)F)c1)C(=O)Nc1ccc([N+](=O)[O-])c(C(F)(F)F)c1 (configuration not stated) | 2150 nM | 5.26 µM | 2100 nM | 3.3 µM |  |  |  |  | 567 min | 9.01 µM |  |  | 3100 nM | 3.6 µM | 93% |
| CC(O)(CSc1cc(C(F)(F)F)cc(C(F)(F)F)c1)C(=O)Nc1ccc([N+](=O)[O-])c(C(F)(F)F)c1 (configuration not stated) | 1500 nM | 2.78 µM | 1500 nM | 1.53 µM | Dose-dependent effect |  |  |  |  |  |  |  | 710 nM |  | 90% |
